Measured values published in ChEMBL document CHEMBL2021825, “Dimerization of β-tryptase inhibitors, does it work for both basic and neutral P1 groups?” (Bioorg Med Chem Lett, 2012).
Activity calls are given as the source filed them. No cut-off for these calls is given here.

Columns and labels:
[1] = Inhibition of human recombinant beta-tryptase using chromogenic substrate S-2366
[2] = species: Homo sapiens; experiment: Inhibition of human recombinant beta-tryptase using chromogenic substrate S-2366 at 30 uM
[3] = system: Tryptase beta-1 (Homo sapiens), Q15661 [A190S]; experiment: Inhibition of human recombinant beta-tryptase A190S mutant using chromogenic substrate S-2366
Sequence of Tryptase beta-1 (Homo sapiens), Q15661 [A190S] (Q15661 whole entry A190S): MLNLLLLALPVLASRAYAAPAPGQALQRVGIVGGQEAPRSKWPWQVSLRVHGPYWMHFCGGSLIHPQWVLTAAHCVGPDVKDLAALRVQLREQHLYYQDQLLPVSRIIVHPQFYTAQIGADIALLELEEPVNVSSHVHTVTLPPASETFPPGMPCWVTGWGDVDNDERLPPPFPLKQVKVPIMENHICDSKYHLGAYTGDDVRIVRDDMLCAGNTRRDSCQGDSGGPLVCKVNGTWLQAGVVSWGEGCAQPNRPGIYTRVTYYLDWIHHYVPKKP

Structure (SMILES) | Ki [1] [nM] | also measured
O=C1CN(Cc2cc(-c3ccc(Cl)s3)on2)CCN1CCCCCCCCCCN1CCN(Cc2cc(-c3ccc(Cl)s3)on2)CC1=O |  | inhibition [2]: inactive
Nc1ncnc2cc(CN3CCN(Cc4cc(-c5ccc(Cl)s5)on4)CC3=O)ccc12 |  | inhibition [3]: inactive
NCc1cccc(C2CCN(C(=O)c3ccccc3)CC2)c1 | 1900 | 

Now from value to molecule, other results behind:

Ki [1] [nM] | Structure (SMILES) | also measured
0.34 | NCc1cccc(C2CCN(C(=O)c3cccc(C#CC#Cc4cccc(C(=O)N5CCC(c6cccc(CN)c6)CC5)c4)c3)CC2)c1 | 
3 | NCc1cccc(C2CCN(C(=O)c3cccc(-c4ccc5c(c4)NC(c4c[nH]c6cc(-c7cccc(C(=O)N8CCC(c9cccc(CN)c9)CC8)c7)ccc46)C5)c3)CC2)c1 (stereo not drawn) | 
2 | NCc1cccc(C2CCN(C(=O)c3cccc(CCCCc4cccc(C(=O)N5CCC(c6cccc(CN)c6)CC5)c4)c3)CC2)c1 | 
0.29 | N=C(N)c1cccc(C2CCN(C(=O)c3cccc(C#CC#Cc4cccc(C(=O)N5CCC(c6cccc(C(=N)N)c6)CC5)c4)c3)CC2)c1 | 
0.3 | N=C(N)c1cccc(C2CCN(C(=O)c3cccc(CCCCc4cccc(C(=O)N5CCC(c6cccc(C(=N)N)c6)CC5)c4)c3)CC2)c1 | 
